Laboratory results from patent US20140335115A1 (priority 2013, published 2014).

What was measured:
Type in all cases: cell-based
cowpoxvirus = tested on: cowpoxvirus
monkeypoxvirus = tested on: monkeypoxvirus
vaccinia virus = tested on: vaccinia virus

Measured: prevention of spread of virus to Jurkat T cells

O=C(NN1C(=O)[C@@H]2[C@@H]3C=C[C@@H]([C@H]4C[C@@H]34)[C@@H]2C1=O)c1ccc(C(F)(F)F)cc1 [ST246]
~90%: all assays above
